# Results: US20230218577A1, “USE OF HEAT SHOCK PROTEIN INHIBITORS FOR THE TREATMENT OF NEURODEVELOPMENTAL DISORDERS” (The Children's Medical Center Corporation, priority 2020, published 2023)
# Tested on: cilia (ACIII) in ctrl-sh hippocampal neurons
# Assay: cilia^HCA in ctrl-sh neurons
# Assay type: cell-based, rat
# Conditions: four-day dose curve between DIV9-13
# Excerpt: To investigate how mTORC1 dysregulation due to neuronal TSC loss affected ciliation, High Content image-based Assays (HCAs) were developed for unbiased quantification of cilia and mTORC1 activity (hereafter cilia^HCA and mTORC1^HCA) in primary neurons. As an in vitro model of TSC, rat hippocampal neurons transduced with lentiviral vectors (LV) expressing a short hairpin RNA (shRNA) were used directed against either the Tsc2 (Tsc2-sh) or the luciferase gene as a control (ctrl-sh) tagged with GFP. […] Both the cilia^HCA and mTORC1^HCA were optimized as imaged-based assays, where cilia and mTORC1 activity was monitored by immunofluorescent staining of ACIII to identify cilia and pS6 as a proxy of mTORC1 activation (FIGS. 8C-F). Neurons were transduced in culture at day in vitro (DIV) 1, and cilia and mTORC1 activity were assessed in a time course experiment at DIV2, 5, 7, 13, and 20 (FIG. 2A). […] Reduced ciliation was validated by manual imaging and quantification of LV-infected neurons co-labeled with ACIII/centrin (FIGS. 8G-H). No changes in size or ACIII intensity were detected in the remaining cilia of the Tsc2-sh neurons (FIGS. 8I-J). […]
smiles,measurement,value
"C=CCNC1=C2C[C@@H](C)C[C@H](OC)[C@H](O)[C@@H](C)/C=C(\C)[C@H](OC(N)=O)[C@@H](OC)C=C/C=C(\C)C(=O)NC(=CC1=O)C2=O [17-AGG, 3 S,5S,6R,7S,8E,10R,11S,12E,14E)-21-(allylamino)-6-hydroxy-5,11-dimethoxy-3,7,9,15-tetramethyl-16,20,22-trioxo-17-azabicyclo[16.3.1]docosa-8,12,14,18,21-pentaen-10-yl] carbamate]",ciliation,did not increase
